How the values were obtained:
Format in all cases: cell-based
human TLR7 = target: T1, human TLR7 (Homo sapiens, UniProt Q9NYK1); test: TLR7 inhibition reporter assay (HEK-Blue cells, SEAP reporter, gardiquimod stimulation); conditions: HEK-Blue cells overexpressing human TLR7, SEAP reporter, gardiquimod 7.5 μM; read-out: TLR7 IC50
T1 construct: host or cells: HEK-Blue cells
T1 sequence (Q9NYK1 27-1049): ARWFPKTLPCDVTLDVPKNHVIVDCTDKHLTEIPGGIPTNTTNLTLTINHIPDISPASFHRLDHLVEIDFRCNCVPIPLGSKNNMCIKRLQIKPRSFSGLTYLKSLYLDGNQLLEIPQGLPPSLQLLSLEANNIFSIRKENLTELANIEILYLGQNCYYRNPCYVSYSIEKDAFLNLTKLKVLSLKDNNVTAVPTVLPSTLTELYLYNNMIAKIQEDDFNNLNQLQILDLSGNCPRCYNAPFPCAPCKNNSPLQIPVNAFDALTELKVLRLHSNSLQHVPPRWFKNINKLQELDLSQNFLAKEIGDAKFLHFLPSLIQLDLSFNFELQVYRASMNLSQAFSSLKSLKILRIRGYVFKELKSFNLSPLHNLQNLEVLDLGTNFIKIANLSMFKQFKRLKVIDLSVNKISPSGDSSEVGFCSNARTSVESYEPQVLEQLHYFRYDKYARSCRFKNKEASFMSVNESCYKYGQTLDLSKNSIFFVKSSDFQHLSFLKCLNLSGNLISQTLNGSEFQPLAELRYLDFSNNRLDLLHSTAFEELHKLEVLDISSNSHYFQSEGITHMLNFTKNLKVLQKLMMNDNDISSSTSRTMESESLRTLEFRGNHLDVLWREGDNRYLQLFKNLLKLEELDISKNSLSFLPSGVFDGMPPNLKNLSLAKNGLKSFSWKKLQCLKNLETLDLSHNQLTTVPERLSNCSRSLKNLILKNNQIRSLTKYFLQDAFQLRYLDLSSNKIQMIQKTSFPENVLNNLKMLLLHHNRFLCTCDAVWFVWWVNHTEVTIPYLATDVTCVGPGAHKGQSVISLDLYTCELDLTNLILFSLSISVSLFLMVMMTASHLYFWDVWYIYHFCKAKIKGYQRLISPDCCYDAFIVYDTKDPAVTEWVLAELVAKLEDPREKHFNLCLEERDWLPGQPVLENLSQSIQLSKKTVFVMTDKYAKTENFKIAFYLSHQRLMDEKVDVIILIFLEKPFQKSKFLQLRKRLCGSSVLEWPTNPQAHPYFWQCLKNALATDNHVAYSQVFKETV
Method in brief: (§1)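 Human TLR7/8/9 HEK-Blue reporter lines; dose range 0.05 nM–50 μM; 30 min RT preincubation; stimulus gardiquimod 7.5 μM / R848 15.9 μM / ODN2006 5 nM respectively; 22 h, 37 °C; SEAP detected colorimetrically.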

human TLR8 = target: T2, human TLR8 (Homo sapiens, UniProt Q9NR97); test: TLR8 inhibition reporter assay (HEK-Blue cells, SEAP reporter, R848 stimulation); conditions: HEK-Blue cells overexpressing human TLR8, SEAP reporter, R848 15.9 μM; read-out: TLR8 IC50
T2 construct: host or cells: HEK-Blue cells
T2 sequence (Q9NR97 27-1041): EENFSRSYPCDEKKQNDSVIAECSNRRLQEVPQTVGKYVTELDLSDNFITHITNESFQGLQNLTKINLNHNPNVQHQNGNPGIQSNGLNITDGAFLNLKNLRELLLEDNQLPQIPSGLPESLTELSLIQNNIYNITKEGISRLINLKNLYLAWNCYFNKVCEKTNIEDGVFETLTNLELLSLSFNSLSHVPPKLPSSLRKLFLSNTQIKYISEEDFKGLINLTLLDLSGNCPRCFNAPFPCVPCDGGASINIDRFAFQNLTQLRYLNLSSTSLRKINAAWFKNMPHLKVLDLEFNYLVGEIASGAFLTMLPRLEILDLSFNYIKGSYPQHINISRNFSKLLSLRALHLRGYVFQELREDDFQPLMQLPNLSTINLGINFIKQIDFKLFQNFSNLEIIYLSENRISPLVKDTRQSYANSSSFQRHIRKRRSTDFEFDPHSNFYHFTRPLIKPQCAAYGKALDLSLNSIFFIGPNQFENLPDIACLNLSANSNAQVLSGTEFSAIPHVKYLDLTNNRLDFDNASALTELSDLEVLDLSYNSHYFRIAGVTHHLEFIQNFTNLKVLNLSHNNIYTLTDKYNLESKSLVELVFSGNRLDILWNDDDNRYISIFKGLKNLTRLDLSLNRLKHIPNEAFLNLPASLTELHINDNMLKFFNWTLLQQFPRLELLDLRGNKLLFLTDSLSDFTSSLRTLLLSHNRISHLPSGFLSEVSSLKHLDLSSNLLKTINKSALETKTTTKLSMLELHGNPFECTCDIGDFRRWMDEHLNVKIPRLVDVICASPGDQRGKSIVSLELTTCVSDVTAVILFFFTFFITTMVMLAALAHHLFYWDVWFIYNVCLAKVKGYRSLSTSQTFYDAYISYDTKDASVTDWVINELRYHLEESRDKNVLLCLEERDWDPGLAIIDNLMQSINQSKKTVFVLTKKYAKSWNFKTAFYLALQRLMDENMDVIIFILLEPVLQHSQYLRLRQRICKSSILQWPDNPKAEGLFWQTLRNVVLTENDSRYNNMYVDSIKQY
Method in brief: as §1

human TLR9 = target: T3, human TLR9 (Homo sapiens, UniProt Q9NR96); test: TLR9 inhibition reporter assay (HEK-Blue cells, SEAP reporter, ODN2006 stimulation); conditions: HEK-Blue cells overexpressing human TLR9, SEAP reporter, ODN2006 5 nM
T3 construct: host or cells: HEK-Blue cells
T3 sequence (Q9NR96 26-1032): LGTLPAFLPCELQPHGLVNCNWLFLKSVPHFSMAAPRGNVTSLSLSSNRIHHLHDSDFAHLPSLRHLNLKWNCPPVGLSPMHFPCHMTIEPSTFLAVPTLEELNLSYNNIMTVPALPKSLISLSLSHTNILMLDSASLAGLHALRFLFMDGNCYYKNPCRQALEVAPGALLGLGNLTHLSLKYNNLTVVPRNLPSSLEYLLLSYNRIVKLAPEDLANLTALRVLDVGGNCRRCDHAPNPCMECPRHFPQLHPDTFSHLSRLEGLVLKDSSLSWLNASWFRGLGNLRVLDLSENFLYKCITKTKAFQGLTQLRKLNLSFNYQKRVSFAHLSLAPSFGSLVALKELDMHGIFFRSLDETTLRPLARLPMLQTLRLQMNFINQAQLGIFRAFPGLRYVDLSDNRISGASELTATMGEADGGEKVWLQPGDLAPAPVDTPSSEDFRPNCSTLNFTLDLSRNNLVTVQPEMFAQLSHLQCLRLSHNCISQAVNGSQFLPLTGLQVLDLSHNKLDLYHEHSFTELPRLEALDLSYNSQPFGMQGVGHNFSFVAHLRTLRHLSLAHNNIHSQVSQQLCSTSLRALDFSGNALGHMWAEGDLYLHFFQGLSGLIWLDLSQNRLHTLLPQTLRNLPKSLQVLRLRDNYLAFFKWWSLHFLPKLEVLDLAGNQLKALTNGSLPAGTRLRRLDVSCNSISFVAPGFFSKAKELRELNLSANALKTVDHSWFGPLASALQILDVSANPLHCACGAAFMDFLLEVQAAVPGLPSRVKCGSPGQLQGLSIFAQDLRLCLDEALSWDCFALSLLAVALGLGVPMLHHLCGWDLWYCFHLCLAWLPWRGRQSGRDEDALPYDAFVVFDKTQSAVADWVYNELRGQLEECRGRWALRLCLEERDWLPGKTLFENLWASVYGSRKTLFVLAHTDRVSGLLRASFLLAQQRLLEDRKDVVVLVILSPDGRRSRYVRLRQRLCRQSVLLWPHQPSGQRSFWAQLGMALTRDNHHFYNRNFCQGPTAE
Method in brief: as §1

Row | SMILES | IC50 (human TLR7) | IC50 (human TLR8) | IC50 (human TLR9)
1 | COc1cc(-c2[nH]c3sc(C4CCC(N5CCS(=O)(=O)CC5)CC4)nc3c2C(C)C)cn2ncnc12 (single isomer, unassigned) [Example 83, 4-(4-(6-isopropyl-5-(8-methoxy-[1,2,4]triazolo[1,5-a]pyridin-6-yl)-4H-pyrrolo[3,2-d]thiazol-2-yl)cyclohexyl)thiomorpholine 1,1-dioxide] | 6.33 nM | 238 nM | > 50000 nM
2 | COc1cc(-c2[nH]c3sc(C4CCC(NCC(C)(C)O)CC4)nc3c2C(C)C)cn2ncnc12 (single isomer, unassigned) [Example 84, 1-((4-(6-isopropyl-5-(8-methoxy-[1,2,4]triazolo[1,5-a]pyridin-6-yl)-4H-pyrrolo[3,2-d]thiazol-2-yl)cyclohexyl)amino)-2-methylpropan-2-ol] | 0.9 nM | 0.84 nM | 9110 nM
3 | COc1cc(-c2[nH]c3sc(C4CCC(NCC(C)(C)O)CC4)nc3c2C(C)C)cn2ncnc12 (single isomer, unassigned) [Example 85, 1-((4-(6-isopropyl-5-(8-methoxy-[1,2,4]triazolo[1,5-a]pyridin-6-yl)-4H-pyrrolo[3,2-d]thiazol-2-yl)cyclohexyl)amino)-2-methylpropan-2-ol] | 2.66 nM | 17.5 nM | 6910 nM
4 | COc1cc(-c2[nH]c3sc(C4CCC(NCC(C)(C)OC)CC4)nc3c2C(C)C)cn2ncnc12 (single isomer, unassigned) [Example 86, 4-(6-isopropyl-5-(8-methoxy-[1,2,4]triazolo[1,5-a]pyridin-6-yl)-4H-pyrrolo[3,2-d]thiazol-2-yl)-N-(2-methoxy-2-methylpropyl)cyclohexan-1-amine] | 1.34 nM | 0.7 nM | 6420 nM
5 | COc1cc(-c2[nH]c3sc(C4CCC(NCC(C)(C)OC)CC4)nc3c2C(C)C)cn2ncnc12 (single isomer, unassigned) [Example 87, 4-(6-isopropyl-5-(8-methoxy-[1,2,4]triazolo[1,5-a]pyridin-6-yl)-4H-pyrrolo[3,2-d]thiazol-2-yl)-N-(2-methoxy-2-methylpropyl)cyclohexan-1-amine] | 1.73 nM | 11.8 nM | 7790 nM
6 | COc1cc(-c2[nH]c3sc(C4CCC(N(C)C(C)C)CC4)nc3c2C(C)C)cn2ncnc12 (single isomer, unassigned) [Example 88, N-isopropyl-4-(6-isopropyl-5-(8-methoxy-[1,2,4]triazolo[1,5-a]pyridin-6-yl)-4H-pyrrolo[3,2-d]thiazol-2-yl)-N-methylcyclohexan-1-amine] | 0.81 nM | 1.84 nM | 4450 nM
7 | COc1cc(-c2[nH]c3sc(C4CCC(N(C)C(C)C)CC4)nc3c2C(C)C)cn2ncnc12 (single isomer, unassigned) [Example 89, N-isopropyl-4-(6-isopropyl-5-(8-methoxy-[1,2,4]triazolo[1,5-a]pyridin-6-yl)-4H-pyrrolo[3,2-d]thiazol-2-yl)-N-methylcyclohexan-1-amine] | 1.48 nM | 18.9 nM | 4100 nM
8 | COc1cc(-c2[nH]c3sc(C4CCC(NC[C@@H](F)C(C)(C)O)CC4)nc3c2C(C)C)cn2ncnc12 (single isomer, unassigned) [Example 90] | 0.8 nM | 1.13 nM | 11100 nM
9 | COc1cc(-c2[nH]c3sc(C4CCC(NC[C@@H](F)C(C)(C)O)CC4)nc3c2C(C)C)cn2ncnc12 (single isomer, unassigned) [Example 91] | 4.01 nM | 8.12 nM | 6720 nM
10 | COc1cc(-c2[nH]c3sc(C4CCC(N)CC4)nc3c2C(C)C)cn2ncnc12 (single isomer, unassigned) [Example 92, 4-(6-isopropyl-5-(8-methoxy-[1,2,4]triazolo[1,5-a]pyridin-6-yl)-4H-pyrrolo[3,2-d]thiazol-2-yl)cyclohexan-1-amine] | 0.31 nM | 2.34 nM | 4110 nM

Source: patent US20230139171A1 (SITA Information Networking Computing UK Limited, priority 2019, published 2023)
